According to patent publication US6623933B1 (priority 1999, dated 2003):
“Also recorded” adds a separate entry of the source. Counter-ions that a name gives are not always drawn. Like-named read-outs stand apart in the source and are kept apart here.

Columns and labels:
[1] = test system: primary cultures of rat hippocampal neurons; assay: NMDA-induced increase in [Ca2+]i, Fluo-3 AM; type: cell-based; conditions: for reduction of NMDA-induced rise in [Ca2+]i: steroid 100 μM (3α5β 50 μM)
Experimental: (§1) Principally neuronal cultures were prepared from hippocampal tissue of fetal Sprague-Dawley rats on day 18 of embryonic development, as previously described (Brewer et al., Brain Research 494: 65-74 (1989)). Briefly, hippocampal cells were dissociated by trituration in Ca^2+/Mg^2+-free Hank's basic salt solution (Gibco) supplemented with 4.2 mM bicarbonate, 1 mM sodium pyruvate, 20 mM HEPES, 3 mg/ml bovine serum albumin (BSA). Dissociated cells were then pelleted by centrifugation (500×g, 4 min). […] Cells were then plated onto poly-L-lysine-coated 24-well culture dishes (Nunclon) at a density of 15,000 cell/cm^2 and maintained in a humidified atmosphere containing 5% CO2/95% air at 37° C. After 48 h, nonneuronal cell division was inhibited by a 48 h exposure to 1 μM cytosine arabinoside. Cultures were subsequently maintained in serum-free DMEM plus defined components and were used for experiments 16 to 24 days after plating.
DMSO was also added to controls to maintain a constant final DMSO concentration of […].
(§2) All data are expressed as mean±standard error of the mean. Statistical significance was evaluated using 95% confidence limits unless otherwise noted.

[2] = target: T1, NR1100+NR2A NMDA receptor (Rattus norvegicus, UniProt P35439+Q00959); assay: NMDA-induced current (INMDA), Xenopus oocytes, Example 2; type: cell-based; conditions: 100 μM NMDA, 100 μM steroid
T1 construct: expressed in transfected cells; host or cells: Xenopus oocytes co-injected with NR1100 and NR2A cRNA
Experimental: NR1100 (NR1G) and NR2A clones were kindly provided by Dr. R. S. Zukin (Albert Einstein College of Medicine, New York, N.Y.) and Dr. S. Nakanishi (Faculty of Medicine, Kyoto University, Kyoto, Japan), respectively. mRNA was prepared through in vitro transcription of NR1100 and NR2A cDNAs using the mMessage mMachine kit (Ambion, Tex.). On the day following isolation, batches of 20-40 selected Xenopus oocytes were injected with 50 nl of prepared RNA solution (0.5 ng NR1100 and 5 ng of NR2A mRNA/oocyte). Oocytes were maintained in glass petri dishes containing Barth's solution (84 mM NaCl, 1 mM KCl, 2.4 mM NaHCO3, 0.82 mM MgSO4, 0.41 mM CaCl2, 0.33 mM Ca(NO3)2, 2.5 mM pyruvate, 0.1 mg/ml gentamycin, 7.5 mM Tris/HCl, pH 7.4) in an incubator at 18° C. Oocytes were used for electrophysiological experiments 4-10 days after injection.
Recordings from oocytes were obtained using the two electrode voltage-clamp mode with an Axoclamp-2A amplifier (Axon Instruments). The resistance of microelectrodes, pulled from glass capillaries and filled with 3 M KCl solution, was 2.5-3.5 M. Membrane potential was clamped at −70 mV. Drugs were applied by a gravity-driven external perfusion system. Drug application and data acquisition were carried out with custom-written software implemented in the SuperScopeII programming language (GW Instruments, Somerville, Mass.).
The degree of modulation of NMDA-induced Ca^2+ influx, cell death, and currents is expressed as the percent change, defined as (I′/I−1)×100%, where I and I′ are the NMDA-induced responses in the absence and presence of modulator, respectively. All data are expressed as mean±standard error of the mean. Statistical significance was evaluated using 95% confidence limits unless otherwise noted.

[3] = test system: primary cultures of rat hippocampal neurons; assay: NMDA-induced neuronal death, trypan blue exclusion; type: cell-based; conditions: for exacerbation of NMDA-induced neuronal death: acute NMDA, steroid 100 μM (pregnenolone 20 μM); for inhibition of NMDA-induced neuronal death: acute 30 μM NMDA, steroid 100 μM (3α5β 50 μM)
Experimental: as §1
(§3) Steroids were dissolved in DMSO (0.5% final concentration), and all treatment media contained 0.5% DMSO. […] Following exposure, cultures were washed 3 times with medium from sister cultures (conditioned medium). After the final wash, steroid or vehicle was reintroduced. Drugs were added to cultures in 25 μl of conditioned medium to yield a final volume of 0.25 ml per well. Except where otherwise noted, final steroid concentration was 100 μM.
The ability of neurons to exclude trypan blue was used to quantitate cell viability (Dawson et al., Proc Natl Acad Sci USA 88: 6368-6371 (1991)). […] Cultures were then fixed with 4% paraformaldehyde in PBS for 30 min, at whichtime the fixative was replaced with PBS. The number of stained and unstained neurons were counted in 4 high-power fields per culture well, using an inverted phase contrast microscope under both bright field and phase contrast settings. Experiments were performed in triplicate, and all assessments were made with the experimenter blind to the treatment of each culture well. Percent cell death is expressed as follows: (number of trypan blue stained neurons)/(total number of neurons)×100%.
as §2

[4] = Precipitation in assay buffer / culture medium; type: physicochemical; conditions: 0.5% DMSO, above 50 μM (3α5β) and 20 μM (pregnenolone)
Experimental: Steroids were initially dissolved in 100% DMSO, then diluted into assay buffer at a final DMSO concentration of 0.5% and sonicated for 20 min. All other solutions also contained 0.5% DMSO. Except where otherwise noted, the final steroid concentration was 100 μM.
as §3

[5] = test system: NMDA receptor (chick spinal cord neurons); conditions: Park-Chung et al. 1997, cited from earlier work
NR1100 NMDA receptor = target: T2, NR1100 NMDA receptor (Rattus norvegicus, UniProt P35439); assay: NMDA-induced currents, Xenopus oocytes injected with NR1100 cRNA only, Example 1; type: cell-based
T2 construct: expressed in transfected cells; host or cells: Xenopus oocytes injected with NR1100 cRNA only
Source text: (§4) Plasmids were obtained from the following individuals: Dr. Suzanne Zukin (Albert Einstein College of Medicine, Bronx, N.Y.), NR1100; Dr. Shigetada Nakanishi (Kyoto University Faculty of Medicine, Kyoto, Japan), NR2A; Dr. Stephen Heinemann (Salk Institute, San Diego, Calif.), GluR1 (flop), GluR3 (flop), and GluR6. Plasmids were linearized with BamH1 (NR1100), XhoI (NR2A, GluR1, GluR3) or XbaI (GluR6) prior to in vitro transcription with T3 (GluR1, GluR3, GluR6) or T7 (NR1100, NR2A) RNA polymerase using the Message Machine kit (Ambion, Austin, Tex.). […] RNA solutions (50-70 nl) were injected into oocytes for delivery of NR1100 (5 ng), NR1100:NR2A (1:10 ng), GluR1 (5 ng). GluR3 (5 ng), or GluR6 (20 ng). Oocytes were incubated in ND96 at 18-20° C. for 3-7 days prior to electrophysiological recording.
(§5) Steroid solutions were prepared as 70-100 mM frozen stocks in dimethyl sulfoxide (DMSO). The final DMSO concentration of all recording solutions was between 0.1% to 0.5% and was constant within an experiment.
(§6) Perfusion control and data acquisition were carried out using an automated oocyte electrophysiology workstation that was developed for the rapid collection of concentration-response data and real-time waveform analysis (Yaghoubi et al., Soc. Neurosci. Abstr. 20: 1109 (1995)). This system is implemented on a Macintosh IIci computer (Apple Computer, Cupertino, Calif.) equipped with MacA-DIOS II data acquisition and control hardware (GW Instruments, Somerville, Mass.). Drug application is controlled by the computer through a series of valves, using custom-written software based on the SuperScope II development environment, improving the efficiency and reproducibility of data collection. Experiments were carried out using an Axoclamp-2A voltage clamp amplifier (Axon Instruments, Foster City, Calif.) in two-electrode voltage clamp mode. Intracellular microelectrodes (1-3 MΩ) were filled with 3 M KCl. […] Membrane potential was clamped at −60 to −70 mV and stepped to −100 mV at the start of data acquisition unless otherwise stated. […] Current and voltage recordings were digitized at 100 Hz for analysis. GluR6 injected oocytes were treated for 10 min with 10 μg/ml concanavalin A to prevent fast desensitization.
(§7) Results are expressed as mean±S.E.M. Statistical comparisons were made using Student's t-test.

[6] = target: T1, NR1100+NR2A NMDA receptor; assay: NMDA-induced currents, Xenopus oocytes, Example 1; type: cell-based; conditions: for effect on NMDA induced current: NR1100+NR2A, sulfate
Source text: as §4, §5, §6, §7

GluR6 kainate receptor = target: T3, GluR6 kainate receptor (Rattus norvegicus, UniProt P42260); assay: Kainate-induced currents, Xenopus oocytes injected with GluR6 cRNA; type: cell-based
T3 construct: expressed in transfected cells; host or cells: Xenopus oocytes injected with GluR6 cRNA (concanavalin A treated)
Source text: as §4, §5, §6, §7

GluR1 AMPA receptor = target: T4, GluR1 AMPA receptor (Rattus norvegicus, UniProt P19490); assay: Kainate-induced currents, Xenopus oocytes injected with GluR1 cRNA; type: cell-based
T4 construct: expressed in transfected cells; host or cells: Xenopus oocytes injected with GluR1 cRNA
Source text: as §4, §5, §6, §7

GluR3 AMPA receptor = target: T5, GluR3 AMPA receptor (Rattus norvegicus, UniProt P19492); assay: Kainate-induced currents, Xenopus oocytes injected with GluR3 cRNA; type: cell-based
T5 construct: expressed in transfected cells; host or cells: Xenopus oocytes injected with GluR3 cRNA
Source text: as §4, §5, §6, §7

T1 sequence (Q00959 23-1464, other chains not shown): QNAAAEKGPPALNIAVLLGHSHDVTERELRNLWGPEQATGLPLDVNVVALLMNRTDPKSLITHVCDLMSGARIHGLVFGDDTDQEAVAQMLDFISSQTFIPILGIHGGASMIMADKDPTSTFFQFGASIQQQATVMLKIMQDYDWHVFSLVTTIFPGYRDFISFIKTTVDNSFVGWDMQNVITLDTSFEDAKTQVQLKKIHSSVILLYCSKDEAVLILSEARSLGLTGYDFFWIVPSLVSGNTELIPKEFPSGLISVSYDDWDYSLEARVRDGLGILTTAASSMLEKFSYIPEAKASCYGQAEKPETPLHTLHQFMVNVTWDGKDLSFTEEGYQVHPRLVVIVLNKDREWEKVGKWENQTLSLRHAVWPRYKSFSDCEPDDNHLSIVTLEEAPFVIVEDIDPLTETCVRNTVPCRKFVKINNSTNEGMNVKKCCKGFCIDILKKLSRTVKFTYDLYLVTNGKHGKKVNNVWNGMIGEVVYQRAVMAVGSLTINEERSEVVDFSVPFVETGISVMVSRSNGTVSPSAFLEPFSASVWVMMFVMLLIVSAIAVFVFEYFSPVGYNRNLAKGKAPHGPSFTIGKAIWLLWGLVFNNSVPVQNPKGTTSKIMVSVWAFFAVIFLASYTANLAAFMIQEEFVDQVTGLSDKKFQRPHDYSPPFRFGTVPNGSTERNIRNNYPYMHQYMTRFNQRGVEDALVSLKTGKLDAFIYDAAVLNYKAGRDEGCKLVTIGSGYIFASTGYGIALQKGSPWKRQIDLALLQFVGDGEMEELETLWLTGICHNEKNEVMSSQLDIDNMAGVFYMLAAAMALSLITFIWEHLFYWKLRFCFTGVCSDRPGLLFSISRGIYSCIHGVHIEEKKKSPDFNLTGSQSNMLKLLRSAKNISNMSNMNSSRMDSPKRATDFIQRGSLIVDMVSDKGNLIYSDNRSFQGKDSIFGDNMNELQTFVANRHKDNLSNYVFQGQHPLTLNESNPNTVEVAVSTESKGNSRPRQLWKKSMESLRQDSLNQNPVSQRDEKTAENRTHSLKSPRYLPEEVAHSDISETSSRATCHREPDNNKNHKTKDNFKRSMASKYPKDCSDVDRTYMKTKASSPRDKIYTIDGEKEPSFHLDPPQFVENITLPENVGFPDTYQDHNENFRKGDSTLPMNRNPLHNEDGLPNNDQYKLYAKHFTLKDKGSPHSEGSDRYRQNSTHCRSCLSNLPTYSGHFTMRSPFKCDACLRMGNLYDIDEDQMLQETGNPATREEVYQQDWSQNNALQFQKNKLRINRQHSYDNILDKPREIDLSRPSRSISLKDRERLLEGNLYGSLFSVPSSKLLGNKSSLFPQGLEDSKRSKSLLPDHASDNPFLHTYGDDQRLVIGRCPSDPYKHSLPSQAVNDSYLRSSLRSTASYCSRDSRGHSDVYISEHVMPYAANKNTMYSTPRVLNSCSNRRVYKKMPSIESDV
T3 sequence (P42260 32-908): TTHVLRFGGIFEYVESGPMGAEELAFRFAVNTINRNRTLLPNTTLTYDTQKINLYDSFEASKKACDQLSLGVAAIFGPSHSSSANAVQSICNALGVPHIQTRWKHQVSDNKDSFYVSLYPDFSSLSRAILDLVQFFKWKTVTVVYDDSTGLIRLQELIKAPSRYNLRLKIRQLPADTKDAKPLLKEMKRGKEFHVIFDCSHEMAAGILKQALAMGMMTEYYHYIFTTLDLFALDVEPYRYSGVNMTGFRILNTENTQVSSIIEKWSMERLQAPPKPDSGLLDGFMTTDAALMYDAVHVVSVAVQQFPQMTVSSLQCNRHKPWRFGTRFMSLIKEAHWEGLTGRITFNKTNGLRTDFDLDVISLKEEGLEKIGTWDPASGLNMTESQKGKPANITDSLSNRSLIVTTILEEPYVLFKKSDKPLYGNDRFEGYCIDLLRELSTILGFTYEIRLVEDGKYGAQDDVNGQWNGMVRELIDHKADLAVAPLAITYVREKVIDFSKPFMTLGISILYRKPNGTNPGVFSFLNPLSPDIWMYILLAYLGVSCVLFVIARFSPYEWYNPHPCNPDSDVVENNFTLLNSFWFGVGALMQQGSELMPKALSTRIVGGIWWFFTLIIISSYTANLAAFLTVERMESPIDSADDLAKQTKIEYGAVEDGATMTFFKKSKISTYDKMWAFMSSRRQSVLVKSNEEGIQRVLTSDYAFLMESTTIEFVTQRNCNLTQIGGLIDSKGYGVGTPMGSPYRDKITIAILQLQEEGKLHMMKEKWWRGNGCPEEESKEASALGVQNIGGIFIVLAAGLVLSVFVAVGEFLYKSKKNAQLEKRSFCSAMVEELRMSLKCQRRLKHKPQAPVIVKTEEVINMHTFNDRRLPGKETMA
T4 sequence (P19490 19-907): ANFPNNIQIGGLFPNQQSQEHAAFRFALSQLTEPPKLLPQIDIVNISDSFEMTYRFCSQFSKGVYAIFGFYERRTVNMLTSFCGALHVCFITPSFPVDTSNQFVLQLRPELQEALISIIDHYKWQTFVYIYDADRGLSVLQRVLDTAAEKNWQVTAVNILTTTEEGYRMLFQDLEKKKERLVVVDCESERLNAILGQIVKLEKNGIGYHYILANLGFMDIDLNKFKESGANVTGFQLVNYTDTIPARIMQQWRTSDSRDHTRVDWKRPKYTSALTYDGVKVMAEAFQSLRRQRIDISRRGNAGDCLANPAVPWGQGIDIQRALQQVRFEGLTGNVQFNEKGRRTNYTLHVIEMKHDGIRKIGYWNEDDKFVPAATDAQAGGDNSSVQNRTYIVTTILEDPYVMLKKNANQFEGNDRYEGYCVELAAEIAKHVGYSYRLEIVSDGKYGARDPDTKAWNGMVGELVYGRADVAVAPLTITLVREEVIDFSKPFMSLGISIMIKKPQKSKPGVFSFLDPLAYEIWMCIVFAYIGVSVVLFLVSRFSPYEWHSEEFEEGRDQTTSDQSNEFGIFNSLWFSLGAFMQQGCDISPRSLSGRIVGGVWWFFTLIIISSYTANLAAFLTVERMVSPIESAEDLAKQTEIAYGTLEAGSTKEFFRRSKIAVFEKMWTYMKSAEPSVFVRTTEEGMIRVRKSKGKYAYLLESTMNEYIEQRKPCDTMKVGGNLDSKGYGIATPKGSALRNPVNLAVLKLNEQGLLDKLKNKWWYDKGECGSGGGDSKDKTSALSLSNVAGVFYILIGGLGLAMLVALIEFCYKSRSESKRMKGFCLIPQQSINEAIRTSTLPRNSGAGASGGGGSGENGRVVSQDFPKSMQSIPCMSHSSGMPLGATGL
T5 sequence (P19492 23-888): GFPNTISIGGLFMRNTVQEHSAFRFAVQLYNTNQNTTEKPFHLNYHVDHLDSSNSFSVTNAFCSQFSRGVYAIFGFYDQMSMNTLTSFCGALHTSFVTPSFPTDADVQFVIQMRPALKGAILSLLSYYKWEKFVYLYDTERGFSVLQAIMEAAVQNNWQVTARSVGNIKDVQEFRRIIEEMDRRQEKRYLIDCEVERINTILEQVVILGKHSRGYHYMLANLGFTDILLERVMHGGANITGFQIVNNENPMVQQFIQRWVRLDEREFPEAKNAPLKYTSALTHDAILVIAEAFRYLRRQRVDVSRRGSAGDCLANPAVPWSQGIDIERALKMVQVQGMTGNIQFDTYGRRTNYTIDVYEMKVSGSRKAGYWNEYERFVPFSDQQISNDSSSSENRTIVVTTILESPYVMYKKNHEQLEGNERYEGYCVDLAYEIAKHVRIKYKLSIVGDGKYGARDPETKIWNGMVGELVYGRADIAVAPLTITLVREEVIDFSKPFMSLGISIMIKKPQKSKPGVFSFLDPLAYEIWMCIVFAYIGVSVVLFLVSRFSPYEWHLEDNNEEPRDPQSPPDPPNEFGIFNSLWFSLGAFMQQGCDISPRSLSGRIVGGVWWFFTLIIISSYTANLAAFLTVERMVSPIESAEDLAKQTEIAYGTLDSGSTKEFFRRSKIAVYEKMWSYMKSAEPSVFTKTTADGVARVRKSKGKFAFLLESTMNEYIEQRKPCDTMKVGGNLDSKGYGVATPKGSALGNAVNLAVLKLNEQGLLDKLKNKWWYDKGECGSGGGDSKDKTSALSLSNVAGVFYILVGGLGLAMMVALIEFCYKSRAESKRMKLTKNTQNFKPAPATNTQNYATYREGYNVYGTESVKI

Compound | potentiation of INMDA [2] | exacerbation of NMDA-induced neuronal death [3] | inhibition of NMDA-induced neuronal death [3] | reduction of NMDA-induced rise in [Ca2+]i ([1]; 5 μM NMDA) | inhibition of INMDA [2] | also measured
CC(=O)[C@H]1CC[C@H]2[C@@H]3CC=C4C[C@@H](OC(=O)C(=O)O)CC[C@]4(C)[C@H]3CC[C@]12C [PHO, pregnenolone hemioxylate] | little activity; also recorded: does not enhance the NMDA-induced current | 48±12% |  |  |  | potentiation of NMDA-induced Ca2+ accumulation [1]: 62±17%
CC(=O)[C@H]1CC[C@H]2[C@@H]3CC=C4C[C@@H](O)CC[C@]4(C)[C@H]3CC[C@]12C [pregnenolone] | 5±2% | ineffective |  |  |  | potentiation of NMDA-induced Ca2+ accumulation [1]: without effect; precipitation at higher concentrations [4]: higher concentrations tended to precipitate
CC(=O)[C@H]1CC[C@H]2[C@@H]3CC[C@@H]4C[C@@H](OS(=O)(=O)O)CC[C@]4(C)[C@H]3CC[C@]12C [3β5βS, epipregnanolone sulfate] |  |  | 86±3% |  |  | modulation of NMDA-induced current [5]: strong inhibitors; EC50 (NR1100 NMDA receptor): 144 µM; EC50 [6]: 79 µM
pregnanolone formate [3α5βF] |  |  | do not exhibit significant neuroprotective activity | no significant effect | significantly inhibits INMDA | 
CC(=O)[C@H]1CC[C@H]2[C@@H]3CC[C@H]4C[C@@H](OS(=O)(=O)O)CC[C@]4(C)[C@H]3CC[C@]12C [3β5αS, 3β-hydroxy-5α-pregnan-20-one sulfate] |  | 40±7% |  |  |  | modulation of NMDA-induced current ([5]; sulfate): weakly potentiates; effect on NMDA induced current [6]: 33±13%
CC(=O)C1CCC2C3CC=C4C[C@@H](OC(=O)CCC(=O)O)CC[C@]4(C)C3CC[C@]12C (stereo partly drawn) [PHS, pregnenolone hemisuccinate] | more than doubling the response |  |  |  |  | Percentage change in kainate response (GluR6 kainate receptor): −15 ± 2(3) %; inhibition of the response to kainate (GluR6 kainate receptor): 15%; Percentage change in NMDA response ([6]; NR1100 + NR2A, steroid 100 μM, 100 μM NMDA, −100 mV): +118 ± 16(16) %; Percentage change in kainate response (GluR1 AMPA receptor): −71 ± 1(4) %; Percentage change in kainate response (GluR3 AMPA receptor): −72 ± 3(3) %
CC(=O)[C@H]1CC[C@H]2[C@@H]3CC=C4C[C@@H](OC(=O)CCCC(=O)O)CC[C@]4(C)[C@H]3CC[C@]12C [PHG, pregnenolone hemiglutarate] | more than doubling the response | 54±9% |  |  |  | potentiation of NMDA-induced Ca2+ accumulation [1]: 146±29%
CC(=O)[C@H]1CC[C@H]2[C@@H]3CC[C@@H]4C[C@H](OC(=O)C(=O)O)CC[C@]4(C)[C@H]3CC[C@]12C [3α5βHO, pregnanolone hemioxylate] |  |  | 35±6% | approximately 40% | about equally effective in inhibiting INMDA | 
CC(=O)[C@H]1CC[C@H]2[C@@H]3CC[C@@H]4C[C@H](O)CC[C@]4(C)[C@H]3CC[C@]12C [3α5β, pregnanolone] |  |  | do not exhibit significant neuroprotective activity | no significant effect | inactive | precipitation at higher concentrations [4]: higher concentrations tended to precipitate
CC(=O)[C@H]1CC[C@H]2[C@@H]3CC[C@@H]4C[C@H](OC(=O)CCCC(=O)O)CC[C@]4(C)[C@H]3CC[C@]12C [3α5βHG, pregnanolone hemiglutarate] |  |  | 38±6% | approximately 40% | about equally effective in inhibiting INMDA | 
CC(=O)[C@H]1CC[C@H]2[C@@H]3CC=C4C[C@@H](OC=O)CC[C@]4(C)[C@H]3CC[C@]12C [PF, pregnenolone formate] | little activity | ineffective |  |  |  | potentiation of NMDA-induced Ca2+ accumulation ([1]; 5 μM NMDA, steroid 100 μM (pregnenolone 20 μM)): without effect
CC(=O)[C@H]1CC[C@H]2[C@@H]3CC[C@H]4C[C@@H](OS(=O)(=O)O)CC[C@]4(C)[C@H]3CC[C@]12C [3α5αS, 3α-hydroxy-5α-pregnan-20-one sulfate] |  |  | 47±12% |  |  | modulation of NMDA-induced current ([5]; sulfate): weaker inhibitor; effect on NMDA induced current [6]: 8±8%
